Measurements from patent US20130289070A1, “Use of Levocabastine for Modulating Generation of Pro-Inflammatory Cytokines” (Bausch & Lomb Incorporated, priority 2007, published 2013).

Tested on: EoL-1 (human eosinophilic leukaemia cell line) cells
Assay: TNF-α-induced cytokine release, differentiated and non-differentiated EoL-1 cells
Assay type: cell-based
Description: EoL-1 (human eosinophilic leukaemia cell line) cells (Saito et al., 1985; Mayumi, 1992) were maintained in RPMI-1640 medium with L-glutamine supplemented with 10% (v/v) FBS at 37° C. in a humidified atmosphere with 5% CO2. Where indicated, 24 h before the experiment 25 ng/mL PMA ((phorbol 12-myristate 13-acetate, purchased from Sigma Aldrich) was added to the medium to induce eosinophil granulation and differentiation (Ohtsu et al., 1993; Zimmermann et al., 2000). Half-million cells were aliquoted per point in a 24 well plate; each experiment was performed in triplicate and carried out in parallel with eosinophils differentiated and non differentiated with PMA (25 ng/mL, 24 h). Cells were suspended in low serum medium (RPMI-1640, 0.1% (v/v) FBS). TNF-α was used to induce cytokine secretion as previously described by Steube et al. (2000), and the net release was obtained by comparison to the basal (non-TNF-α treated). In the first experiment we evaluated the concentration and time relation between TNF-α stimulation and cytokine release. […] An aliquot of 150 μL of supernate was collected for cytokines' analysis. […] Differentiated and non-differentiated EoL-1 cells were exposed from 0.1 to 2.3 mM levocabastine ([…]Levocabastine 0.05% solution eye drops containing cyclodextrins, without benzalkonium chloride), and aliquots of the supernates were collected after 12 and 24 h. The content of cytokines at time zero was estimated by treating the cells with 400 nM calcimycin (A-23187), which is a cytolytic agent that frees all the mediators from the cytoplasmic compartment. In addition, for each experiment we tested the effect of the vehicle, which was added to the wells in a concentration equal to the maximum amount used for drug dilution. Samples (supernates 12 and 24 h) in triplicate were analyzed using Luminex 200™ (Luminex, Austin, Tex.) and Beadview software v1.0 (Upstate Cell Signaling Solutions, Temecula, Calif.). All data are presented as mean±SEM for the indicated number of experiments. Statistical significance was determined by Newman-Keuls test after ANOVA using GraphPad Prism (version 3.0; GraphPad Software Inc., San Diego, Calif., USA).

[1] = TNF-α challenge, text summary of Tables T-1, T-2
[2] = overall conclusion, in a concentration-dependent manner
[3] = overall conclusion, in a concentration-dependent way

C[C@@H]1CN([C@H]2CC[C@](C#N)(c3ccc(F)cc3)CC2)CC[C@]1(C(=O)O)c1ccccc1 [Levocabastine, levocabastine] was tested, and the “release of IL-12p40 induced by TNF-α” value (2 mM, TNF-α 10 ng, 24 h, without PMA or differentiated with it, not influenced by VCAM-1 or fibronectin (FIG. 10)) was “effective in reducing the release”, the “release of VEGF induced by TNF-α” value (2 mM, TNF-α 10 ng, 24 h, without PMA or differentiated with it, not influenced by VCAM-1 or fibronectin (FIG. 14)) was “effective in reducing the release” and the “release of IL-12 P40 induced by TNF-α” value (2 mM, TNF-α 5, 10 and 20 ng, 12 h, without PMA or differentiated with it (FIG. 5)) was “capable of reducing the release”. The “release of VEGF induced by TNF-α” value (2 mM, TNF-α 5, 10 and 20 ng, 24 h, without PMA or differentiated with it (FIG. 6)) was “capable of reducing the release”, the “release of VEGF induced by TNF-α” value (2 mM, TNF-α 5, 10 and 20 ng, 24 h, without PMA or differentiated with it (FIG. 8)) was “capable of reducing the release” and the “release of IP-10 induced by TNF-α” value (0.1, 0.5 and 1.0 mM, 12 h, without PMA or differentiated with it (FIG. 1)) was “capable to prevent the release”. For the same molecule, the “release of VEGF induced by TNF-α” value (0.1, 0.5 and 1.0 mM, 24 h, without PMA or differentiated with it (FIG. 4)) was “capable to prevent the release”, the “VEGF release (FIG. 14)” value (PMA differentiated and indifferentiated EoL-1 cells, after TNF-α challenge) was “able to reduce” and the “release of IL-1β” value [1] was “significantly reduce”. For the same molecule, the “release of IP-10” value [1] was “significantly reduce”, the “TNF-α-induced release of IL-8” value (overall conclusion) was “statistical significant reduction” and the “TNF-α-induced release of IL-12p40” value (overall conclusion) was “statistical significant reduction”. The “TNF-α-induced release of VEGF” value (overall conclusion) was “statistical significant reduction”, the “cytokine release, general effect” value (overall conclusion, following TNF-α stimulation) was “concentration-related reduction” and the “release of IL1-ra” value [2] was “significantly reduced”. The “release of IL-1β” value [2] was “significantly reduced”, the “release of IP-10” value [2] was “significantly reduced” and the “secretion of MIP-1α” value [3] was “increasing the secretion”. For the same molecule, the “secretion of RANTES” value [3] was “increasing the secretion”.
